Results: PubChem BioAssay (NCI)
Several values for one entry are separate records, joined by “and”; a condition that tells them apart may be missing. Identical values can stand only once.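 Protocol summary: plate cells (96-well), add compound at 5 concentrations, incubate 48 h, interpolate endpoints linearly. GI50 = concentration required for 50% inhibition of growth. TGI: total growth inhibition.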

Tests used:
Test in all cases: NCI tumour cell line growth inhibition, 48 h
HT29 colon = test system: HT29 colon
NCI-H226 lung = test system: NCI-H226 lung
SF-539 CNS = test system: SF-539 CNS
BT-549 breast = test system: BT-549 breast
MALME-3M melanoma = test system: MALME-3M melanoma
RPMI-8226 leukemia = test system: RPMI-8226 leukemia
A549 NSCLC = test system: A549 NSCLC
M14 melanoma = test system: M14 melanoma
SK-MEL-2 melanoma = test system: SK-MEL-2 melanoma
EKVX NSCLC = test system: EKVX NSCLC
ACHN renal = test system: ACHN renal
HCT-116 colon = test system: HCT-116 colon
UO-31 renal = test system: UO-31 renal
CCRF-CEM leukemia = test system: CCRF-CEM leukemia
MDA-MB-231 breast = test system: MDA-MB-231 breast
MDA-MB-435 = test system: MDA-MB-435
NCI-H23 lung = test system: NCI-H23 lung
UACC-62 melanoma = test system: UACC-62 melanoma
NCI/ADR-RES ovarian = test system: NCI/ADR-RES ovarian
MOLT-4 leukemia = test system: MOLT-4 leukemia
OVCAR-3 ovarian = test system: OVCAR-3 ovarian
OVCAR-5 ovarian = test system: OVCAR-5 ovarian
TK-10 renal = test system: TK-10 renal
SK-MEL-5 melanoma = test system: SK-MEL-5 melanoma
K-562 leukemia = test system: K-562 leukemia
HOP-92 NSCLC = test system: HOP-92 NSCLC
RXF 393 renal = test system: RXF 393 renal
SK-MEL-28 melanoma = test system: SK-MEL-28 melanoma
NCI-H460 lung = test system: NCI-H460 lung
MCF7 breast = test system: MCF7 breast
HS 578T breast = test system: HS 578T breast
SF-268 CNS = test system: SF-268 CNS
SNB-75 CNS = test system: SNB-75 CNS
MDA-N = test system: MDA-N
IGROV1 ovarian = test system: IGROV1 ovarian
T-47D breast = test system: T-47D breast
LOX IMVI melanoma = test system: LOX IMVI melanoma
SW-620 colon = test system: SW-620 colon
SNB-19 CNS = test system: SNB-19 CNS
DU-145 prostate = test system: DU-145 prostate
OVCAR-4 ovarian = test system: OVCAR-4 ovarian
PC-3 prostate = test system: PC-3 prostate
HOP-62 NSCLC = test system: HOP-62 NSCLC
COLO 205 colon = test system: COLO 205 colon
OVCAR-8 ovarian = test system: OVCAR-8 ovarian
KM12 colon = test system: KM12 colon
HCC-2998 colon = test system: HCC-2998 colon
SN12C renal = test system: SN12C renal
SF-295 CNS = test system: SF-295 CNS
SR leukemia = test system: SR leukemia
U251 CNS = test system: U251 CNS
UACC-257 melanoma = test system: UACC-257 melanoma
CAKI-1 renal = test system: CAKI-1 renal
SK-OV-3 ovarian = test system: SK-OV-3 ovarian
HL-60(TB) leukemia = test system: HL-60(TB) leukemia
A498 renal = test system: A498 renal
786-0 renal = test system: 786-0 renal
HCT-15 colon = test system: HCT-15 colon

Compound: Cc1cc(C)c(S(=O)(=O)N(CCCCCN)OCCCN)c(C)c1
- TGI (HT29 colon): 27.9 µM
- TGI (NCI-H226 lung): 29.9 µM
- TGI (SF-539 CNS): 27 µM
- TGI (BT-549 breast): 32.4 µM
- TGI (MALME-3M melanoma): 40.2 µM
- TGI (RPMI-8226 leukemia): 30.6 µM
- TGI (A549 NSCLC): 36 µM
- TGI (M14 melanoma): 37 µM
- TGI (SK-MEL-2 melanoma): 35.1 µM
- TGI (EKVX NSCLC): 30.6 µM
- TGI (ACHN renal): 33.6 µM
- TGI (HCT-116 colon): 32.7 µM
- TGI (UO-31 renal): 27.1 µM
- TGI (CCRF-CEM leukemia): 45.6 µM
- TGI (MDA-MB-231 breast): 49 µM
- TGI (MDA-MB-435): 34.9 µM
- TGI (NCI-H23 lung): 33.4 µM
- TGI (UACC-62 melanoma): 33.4 µM
- TGI (NCI/ADR-RES ovarian): 34.3 µM
- TGI (MOLT-4 leukemia): 33 µM
- TGI (OVCAR-3 ovarian): 36.2 µM
- TGI (OVCAR-5 ovarian): 33.7 µM
- TGI (TK-10 renal): 30.8 µM
- TGI (SK-MEL-5 melanoma): 35.5 µM
- TGI (K-562 leukemia): 60.8 µM
- TGI (HOP-92 NSCLC): 31 µM
- TGI (RXF 393 renal): 24.8 µM
- TGI (SK-MEL-28 melanoma): 32.2 µM
- TGI (NCI-H460 lung): 31.2 µM
- TGI (MCF7 breast): 33.5 µM
- TGI (HS 578T breast): 40 µM
- TGI (SF-268 CNS): 37.6 µM
- TGI (SNB-75 CNS): 30.9 µM
- TGI (MDA-N): 31.4 µM
- TGI (IGROV1 ovarian): 30 µM
- TGI (T-47D breast): 37.7 µM
- TGI (LOX IMVI melanoma): 36.8 µM
- TGI (SW-620 colon): 36.3 µM
- TGI (SNB-19 CNS): 37.6 µM
- TGI (DU-145 prostate): 31.2 µM
- TGI (OVCAR-4 ovarian): 37.8 µM
- TGI (PC-3 prostate): 28.8 µM
- TGI (HOP-62 NSCLC): 32.3 µM
- TGI (COLO 205 colon): 37.9 µM
- TGI (OVCAR-8 ovarian): 34.1 µM
- TGI (KM12 colon): 34.8 µM
- TGI (HCC-2998 colon): 20 µM
- TGI (SN12C renal): 33.3 µM
- TGI (SF-295 CNS): 30.4 µM
- TGI (SR leukemia): 43.9 µM
- TGI (U251 CNS): 35.4 µM
- TGI (UACC-257 melanoma): 32 µM
- TGI (CAKI-1 renal): 31.2 µM

Compound: CN1C2C=CC(=O)C1C(C#N)C2 (centres undefined)
- TGI (SK-OV-3 ovarian): > 100 µM
- GI50 (HT29 colon): 31.8 µM and 90.5 µM
- TGI (HT29 colon): > 100 µM
- GI50 (NCI-H226 lung): 97.7 µM
- TGI (NCI-H226 lung): > 100 µM
- TGI (SF-539 CNS): 84 µM and > 100 µM
- GI50 (BT-549 breast): 34.5 µM and 93.1 µM
- TGI (BT-549 breast): > 100 µM
- TGI (HL-60(TB) leukemia): 43.7 µM and > 100 µM
- TGI (MALME-3M melanoma): 51 µM and > 100 µM
- TGI (A498 renal): > 100 µM
- TGI (A549 NSCLC): > 100 µM
- GI50 (M14 melanoma): 29.5 µM and 69.1 µM
- TGI (M14 melanoma): 89.7 µM and > 100 µM
- GI50 (SK-MEL-2 melanoma): 12.5 µM and 88.3 µM
- TGI (SK-MEL-2 melanoma): 32.1 µM and > 100 µM
- GI50 (EKVX NSCLC): 20.6 µM and 44.2 µM
- TGI (EKVX NSCLC): 49.6 µM and > 100 µM
- TGI (ACHN renal): > 100 µM
- TGI (HCT-116 colon): 54.9 µM and > 100 µM
- GI50 (UO-31 renal): 19.1 µM and 39.8 µM
- TGI (UO-31 renal): 39 µM and > 100 µM
- TGI (CCRF-CEM leukemia): 82.7 µM and > 100 µM
- GI50 (MDA-MB-231 breast): > 100 µM
- TGI (MDA-MB-231 breast): > 100 µM
- TGI (MDA-MB-435): > 100 µM
- TGI (NCI-H23 lung): 87.9 µM and > 100 µM
- TGI (UACC-62 melanoma): > 100 µM
- TGI (NCI/ADR-RES ovarian): > 100 µM
- TGI (MOLT-4 leukemia): > 100 µM
- TGI (OVCAR-3 ovarian): > 100 µM
- TGI (OVCAR-5 ovarian): 15.7 µM and > 100 µM
- TGI (TK-10 renal): > 100 µM
- TGI (SK-MEL-5 melanoma): > 100 µM
- TGI (K-562 leukemia): > 100 µM
- TGI (HOP-92 NSCLC): 57.7 µM and 93.5 µM
- GI50 (RXF 393 renal): 23.9 µM and 57.7 µM
- TGI (RXF 393 renal): 64.3 µM and > 100 µM
- GI50 (SK-MEL-28 melanoma): 30 µM and > 100 µM
- TGI (SK-MEL-28 melanoma): > 100 µM
- TGI (NCI-H460 lung): > 100 µM
- GI50 (786-0 renal): 16.3 µM and 51.7 µM
- TGI (786-0 renal): 35.5 µM and > 100 µM
- TGI (MCF7 breast): > 100 µM
- TGI (HS 578T breast): > 100 µM
- TGI (SF-268 CNS): > 100 µM
- TGI (MDA-N): > 100 µM
- TGI (HCT-15 colon): 73.5 µM and > 100 µM
- TGI (IGROV1 ovarian): > 100 µM
- TGI (T-47D breast): 75.9 µM and > 100 µM
- TGI (SW-620 colon): > 100 µM
- TGI (SNB-19 CNS): > 100 µM
- TGI (DU-145 prostate): > 100 µM
- TGI (PC-3 prostate): > 100 µM
- TGI (HOP-62 NSCLC): > 100 µM
- GI50 (OVCAR-8 ovarian): 20.5 µM and 45.7 µM
- TGI (OVCAR-8 ovarian): 44.8 µM and > 100 µM
- TGI (KM12 colon): > 100 µM
- GI50 (HCC-2998 colon): 32.4 µM and 74.9 µM
- TGI (HCC-2998 colon): > 100 µM
- TGI (SN12C renal): > 100 µM
- TGI (SF-295 CNS): > 100 µM
- GI50 (SR leukemia): 22.7 µM and 61.6 µM
- TGI (SR leukemia): 81 µM and > 100 µM
- GI50 (U251 CNS): 23.6 µM
- TGI (U251 CNS): > 100 µM
